Reference: US11408885B2, “Compositions and multiplex assays for characterizing active proteases and their inhibitors” (Massachusetts Institute of Technology, priority 2017, dated 2022)

Key:
Assay in all cases: FRET substrate cleavage by recombinant MMP, inhibition by activity-based probe
Type in all cases: biochemical
[1] = target: T1, MMP1 (Homo sapiens, UniProt P03956); parameters: purchased Peprotech; conditions: FRET substrate PEPDAB008 10 μM, read-out: IC50, inhibition of substrate cleavage of active MMP
T1 sequence (P03956 100-469): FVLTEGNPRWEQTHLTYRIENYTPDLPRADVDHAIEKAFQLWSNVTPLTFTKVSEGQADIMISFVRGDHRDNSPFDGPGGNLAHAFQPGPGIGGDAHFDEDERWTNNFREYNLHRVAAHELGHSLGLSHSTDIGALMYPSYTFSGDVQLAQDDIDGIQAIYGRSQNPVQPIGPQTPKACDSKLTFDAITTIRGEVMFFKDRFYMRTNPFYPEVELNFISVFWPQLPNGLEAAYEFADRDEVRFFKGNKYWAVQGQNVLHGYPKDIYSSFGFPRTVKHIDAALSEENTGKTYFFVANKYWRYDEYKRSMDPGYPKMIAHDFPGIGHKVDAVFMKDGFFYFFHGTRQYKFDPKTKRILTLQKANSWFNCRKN
From the text: (§1) The binding of an activity-based probe, e.g., HxBP-Bt, to the active site of an MMP (as shown in FIG. 1A) would effectively reduce (or inhibit) the ability of such MMP to cleave its substrate. […] This correlation should also provide an IC50 value to measure the sensitivity/potency of the MAMBI system to bind, and thereby quantify, active MMPs. […] Fluorescence resonance energy transfer (FRET) technique is used to determine if a substrate is cleaved by pre-labeling two parts of a substrate molecule with a donor chromophore and an acceptor chromophore, respectively, and measuring the energy transfer efficiency from the donor to the acceptor chromophore to determine if two fluorophores are within a certain distance of each other, i.e. the substrate is intact and uncleaved. Here, HxBP-Bt bound MMP samples were mixed with chromophore-labeled substrate peptides in 384-well OptiPlates® at 37° C. using timelapse fluorimetry in the Spectromax® M3 and M2e fluorimeters (Molecular Devices). The fluorescence was monitored by plate reader. In general, readings measured fluorescence every 20 minutes for roughly five hours and the reported rate of increase in fluorescence was calculated from fitting a linear portion of this increase including at least 4 data points and subtracting the average increase in background, protease-free conditions. […] Reaction velocities were calculated from linear reaction periods from raw fluorescence value time courses. […] Relative rates of FRET substrate cleavage among samples with the addition of HxBP-Bt were quantified and compared with the rates without HxBP-Bt. Activities of recombinant MMPs 1, 7, 8, 12 and 13, in the presence or absence of HxBP-Bt probe, were characterized with […]008 (Dabcyl-[…]); MMPs 2 and 9 with […]011 (Dabcyl-[…]) and MMPs 3 and 10 with […]052 (Dabcyl-[…]). […] These IC50 values were used to estimate binding off-rates in the computational model. IC50 of the inhibitor was calculated by fitting the resulting dose-dependent data with the PRISM software (GraphPad, USA)

[2] = target: T2, MMP2 (Homo sapiens, UniProt P08253); parameters: purchased Peprotech; conditions: FRET substrate PEPDAB011 10 μM, read-out: IC50, inhibition of substrate cleavage of active MMP
T2 sequence (P08253 110-660): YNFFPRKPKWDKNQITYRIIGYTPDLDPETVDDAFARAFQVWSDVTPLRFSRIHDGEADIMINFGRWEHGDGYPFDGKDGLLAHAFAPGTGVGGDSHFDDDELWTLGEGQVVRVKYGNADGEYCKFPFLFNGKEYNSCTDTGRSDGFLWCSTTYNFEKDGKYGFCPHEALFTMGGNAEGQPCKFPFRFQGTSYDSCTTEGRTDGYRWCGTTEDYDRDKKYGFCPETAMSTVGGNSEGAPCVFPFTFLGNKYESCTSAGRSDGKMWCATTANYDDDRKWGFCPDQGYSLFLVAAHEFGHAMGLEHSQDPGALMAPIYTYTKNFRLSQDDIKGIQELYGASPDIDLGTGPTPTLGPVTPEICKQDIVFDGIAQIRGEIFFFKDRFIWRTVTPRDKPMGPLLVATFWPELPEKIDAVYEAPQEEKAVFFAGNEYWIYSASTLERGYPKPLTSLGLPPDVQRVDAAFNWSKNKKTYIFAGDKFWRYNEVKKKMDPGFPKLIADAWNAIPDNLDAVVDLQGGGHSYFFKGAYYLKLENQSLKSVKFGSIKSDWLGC
From the text: as §1

[3] = target: MMP3 (Homo sapiens, UniProt P08254); parameters: purchased Peprotech; conditions: FRET substrate PEPDAB052 10 μM, read-out: IC50, inhibition of substrate cleavage of active MMP
MMP3, sequence (P08254 100-477): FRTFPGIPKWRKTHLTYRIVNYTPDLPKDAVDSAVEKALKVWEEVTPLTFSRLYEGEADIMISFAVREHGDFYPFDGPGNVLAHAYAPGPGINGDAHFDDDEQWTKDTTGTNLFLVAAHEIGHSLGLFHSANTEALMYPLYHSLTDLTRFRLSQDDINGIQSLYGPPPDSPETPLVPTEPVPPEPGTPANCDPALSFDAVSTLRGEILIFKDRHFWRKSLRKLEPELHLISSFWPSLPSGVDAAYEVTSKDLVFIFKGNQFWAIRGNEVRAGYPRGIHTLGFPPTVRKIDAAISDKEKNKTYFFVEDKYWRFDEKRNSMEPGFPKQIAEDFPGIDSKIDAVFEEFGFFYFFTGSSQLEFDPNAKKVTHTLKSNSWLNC
From the text: as §1

[4] = target: MMP12 (Homo sapiens, UniProt P39900); parameters: The recombinant catalytic domains of human MMPs 7 and 9 were purchased from Enzo Life Sciences, and of MMP 12 from Anaspec; purchased Anaspec; conditions: FRET substrate PEPDAB008 10 μM, read-out: IC50, inhibition of substrate cleavage of active MMP
MMP12, sequence (P39900 106-263 limits assumed): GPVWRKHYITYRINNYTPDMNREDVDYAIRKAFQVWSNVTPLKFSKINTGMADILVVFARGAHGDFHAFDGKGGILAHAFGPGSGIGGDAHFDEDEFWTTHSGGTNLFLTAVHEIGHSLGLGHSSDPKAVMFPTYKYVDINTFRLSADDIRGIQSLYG
From the text: (§2) The binding of an activity-based probe, e.g., HxBP-Bt, to the active site of an MMP (as shown in FIG. 1A) would effectively reduce (or inhibit) the ability of such MMP to cleave its substrate. […] This correlation should also provide an IC50 value to measure the sensitivity/potency of the MAMBI system to bind, and thereby quantify, active MMPs. […] Fluorescence resonance energy transfer (FRET) technique is used to determine if a substrate is cleaved by pre-labeling two parts of a substrate molecule with a donor chromophore and an acceptor chromophore, respectively, and measuring the energy transfer efficiency from the donor to the acceptor chromophore to determine if two fluorophores are within a certain distance of each other, i.e. the substrate is intact and uncleaved. […] The fluorescence was monitored by plate reader. In general, readings measured fluorescence every 20 minutes for roughly five hours and the reported rate of increase in fluorescence was calculated from fitting a linear portion of this increase including at least 4 data points and subtracting the average increase in background, protease-free conditions. […] Reaction velocities were calculated from linear reaction periods from raw fluorescence value time courses. […] Relative rates of FRET substrate cleavage among samples with the addition of HxBP-Bt were quantified and compared with the rates without HxBP-Bt. […]

[5] = target: T3, MMP7 (Homo sapiens, UniProt P09237); parameters: The recombinant catalytic domains of human MMPs 7 and 9 were purchased from Enzo Life Sciences, and of MMP 12 from Anaspec; purchased Enzo Life Sciences; conditions: FRET substrate PEPDAB008 10 μM, read-out: IC50, inhibition of substrate cleavage of active MMP
T3 sequence (P09237 95-267): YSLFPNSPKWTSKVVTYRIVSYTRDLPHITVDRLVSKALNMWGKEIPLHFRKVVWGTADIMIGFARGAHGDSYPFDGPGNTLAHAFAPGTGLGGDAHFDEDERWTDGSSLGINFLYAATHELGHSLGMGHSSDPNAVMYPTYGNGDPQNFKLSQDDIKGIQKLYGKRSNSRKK
From the text: as §2

[6] = target: MMP9 (Homo sapiens, UniProt P14780); parameters: The recombinant catalytic domains of human MMPs 7 and 9 were purchased from Enzo Life Sciences, and of MMP 12 from Anaspec; purchased Enzo Life Sciences; conditions: FRET substrate PEPDAB011 10 μM, read-out: IC50, inhibition of substrate cleavage of active MMP
MMP9, sequence (P14780 107-449 limits assumed): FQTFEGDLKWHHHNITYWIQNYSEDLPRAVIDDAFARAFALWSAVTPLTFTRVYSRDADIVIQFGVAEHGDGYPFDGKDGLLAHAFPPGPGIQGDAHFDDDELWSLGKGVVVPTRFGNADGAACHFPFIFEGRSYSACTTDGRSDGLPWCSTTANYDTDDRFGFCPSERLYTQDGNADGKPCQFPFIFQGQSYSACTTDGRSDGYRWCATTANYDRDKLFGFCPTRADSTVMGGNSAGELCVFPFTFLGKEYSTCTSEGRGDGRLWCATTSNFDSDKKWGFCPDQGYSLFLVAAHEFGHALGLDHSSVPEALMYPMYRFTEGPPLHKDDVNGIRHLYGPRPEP
From the text: as §2

**Q.** With `CC(C)CC(C(=O)NC(Cc1ccc(C(=O)c2ccccc2)cc1)C(=O)NCCOCCOCCOCC(=O)NCC(C)(C)SSC(C)(C)CNC(=O)CCCCC1SCC2NC(=O)NC21)C(O)C(=O)NO` (stereo not drawn) [HxBP-Bt, biotin-tagged hydroxamate benzophenone (HxBP-Bt) probe] as the molecule, how does the IC50 [1] read?
**A.** 2.1 nM

**Q.** And the IC50 [2]?
**A.** 3.3 nM

**Q.** What about the IC50 [3] of the same molecule?
**A.** 61 nM

**Q.** And the IC50 [4]?
**A.** 4 nM

**Q.** What about the IC50 [5] of the same molecule?
**A.** 9.2 nM

**Q.** And the IC50 [6]?
**A.** 2.7 nM
